Reference: US20190152992A1, “BENZODIOXANE DERIVATIVES AND THEIR PHARMACEUTICAL USE” (Orion Corporation, priority 2016, published 2019)
Where a name gives a salt, the structure may show the parent alone.

Key:
human alpha2C receptors = target: T1, human alpha2C receptors (Homo sapiens, UniProt P18825); assay: Determination of alpha2C antagonistic activity in vitro (FLIPR calcium assay); conditions: for Kb: Alpha 2C Adrenaline Kb, Kb calculated from IC50 with the Cheng-Prusoff equation, adrenaline as agonist, CHO cells, human alpha2C
T1 sequence (P18825 1-462): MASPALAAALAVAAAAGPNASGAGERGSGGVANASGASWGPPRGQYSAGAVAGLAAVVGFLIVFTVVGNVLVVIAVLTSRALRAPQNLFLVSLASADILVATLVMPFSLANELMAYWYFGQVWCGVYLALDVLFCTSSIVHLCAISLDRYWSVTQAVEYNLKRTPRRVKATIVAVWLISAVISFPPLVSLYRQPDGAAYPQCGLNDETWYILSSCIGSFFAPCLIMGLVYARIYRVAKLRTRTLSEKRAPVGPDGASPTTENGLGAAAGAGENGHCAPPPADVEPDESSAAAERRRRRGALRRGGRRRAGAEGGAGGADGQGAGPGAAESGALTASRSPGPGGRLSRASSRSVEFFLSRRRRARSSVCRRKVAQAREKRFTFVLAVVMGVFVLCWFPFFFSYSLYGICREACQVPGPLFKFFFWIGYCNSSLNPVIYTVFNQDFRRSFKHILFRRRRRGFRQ

human alpha2A receptors = target: T2, human alpha2A receptors (Homo sapiens, UniProt P08913); assay: cell-based
T2 sequence (P08913 1-465): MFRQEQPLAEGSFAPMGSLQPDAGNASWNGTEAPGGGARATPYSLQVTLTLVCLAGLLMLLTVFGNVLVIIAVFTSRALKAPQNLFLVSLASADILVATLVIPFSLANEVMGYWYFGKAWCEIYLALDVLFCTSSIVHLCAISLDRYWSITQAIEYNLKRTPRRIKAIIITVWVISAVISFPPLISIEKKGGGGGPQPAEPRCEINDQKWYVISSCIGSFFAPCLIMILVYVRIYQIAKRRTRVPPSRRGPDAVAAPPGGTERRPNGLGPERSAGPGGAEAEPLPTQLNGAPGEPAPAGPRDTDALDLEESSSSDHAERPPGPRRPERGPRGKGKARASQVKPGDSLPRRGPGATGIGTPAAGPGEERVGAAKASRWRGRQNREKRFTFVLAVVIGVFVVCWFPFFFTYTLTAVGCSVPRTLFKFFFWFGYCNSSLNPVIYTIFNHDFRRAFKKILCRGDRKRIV
Description: Experiment 1: Determination of alpha2A and alpha2C Antagonistic Activity In Vitro
The growth medium was removed and the cells were incubated with the test compounds and the FLIPR Calcium 6 Assay reagent (Molecular Devices, CA, USA) for 2 h at 37° C. in dark. The test compounds (concentrations in cells 100 pM-10 μM) were dissolved in Probenecid-Ringer consisting of 150 mM NaCl, 3 mM KCl, 1.2 mM MgCl2, 1 mM CaCl2, 5 mM glucose, 20 mM HEPES and 2.5 mM probenecid (pH 7.4 adjusted with 1.0 M NaOH). […] All experiments were performed at 37° C. For agonism measurements the test compounds dissolved in Probenecid-Ringer were applied by FLIPR Tetra at 15 s time point. In order to determine antagonism, the cells were stimulated either with 100 nM adrenaline or noradrenaline and the test compounds were added to the cells 2 h before the experiment with the FLIPR Calcium 6 Assay reagent. […] Typically, there were four replicates at each concentration and six different dose levels. […] The minimum fluorescence value subtracted from the maximum value for each well was used in the calculations. ScreenWorks version 4.0 software was used for analyzing the results. Fitting of the antagonist dose-response results was performed with the free Hill equation and the IC50 values were fitted with IDBS XE software using model 200: y=(A+(B/(1+((x/C)̂D)))), where A is the curve maximum, B the curve minimum and C equals the EC50 value. D is slope factor (Hill). Kb was calculated with the Cheng-Prusoff equation Kb=A/((B/C)+1), where A is the IC50 of antagonist, B the concentration of agonist and C the EC50 of the agonist.

| Compound | IC50 (human alpha2C receptors) | Kb (human alpha2C receptors) | IC50 (human alpha2A receptors) | Kb (human alpha2A receptors) |
| --- | --- | --- | --- | --- |
| O=C1CN(C2CC(F)(F)C2)C(=O)N1[C@H]1CCCN(C[C@H]2COc3ccccc3O2)C1 [example 121, 1-(3,3-Difluorocyclobutyl)-3-((S)-1-(((S)-2,3-dihydrobenzo[b][1,4]dioxin-2-yl)methyl)piperidin-3-yl)imidazolidine-2,4-dione] | 26.4 nM | 2.66 nM | > 10000 nM | > 449 nM |
| O=C1C2CC2C(=O)N1[C@H]1CCCN(C[C@H]2COc3ccccc3O2)C1 (stereo partly drawn) [example 95, 3-((S)-1-(((S)-2,3-Dihydrobenzo[b][1,4]dioxin-2-yl)methyl)piperidin-3-yl)-3-azabicyclo[3.1.0]hexane-2,4-dione] | 0.433 nM | 0.044 nM | 9440 nM | 424 nM |
| O=C1c2ccc(F)c(F)c2CN1[C@H]1CCCN(C[C@H]2COc3ccccc3O2)C1 [example 56, 2-((S)-1-(((S)-2,3-Dihydrobenzo[b][1,4]dioxin-2-yl)methyl)piperidin-3-yl)-4,5-difluoroisoindolin-1-one hydrochloride] | 0.519 nM | 0.052 nM | > 10000 nM | > 449 nM |
| O=S1(=O)Cc2ccccc2N1[C@H]1CCCN(C[C@H]2COc3ccccc3O2)C1 [example 25, 1-((S)-1-(((S)-2,3-Dihydrobenzo[b][1,4]dioxin-2-yl)methyl)piperidin-3-yl)-1,3-dihydrobenzo[c]isothiazole 2,2-dioxide] | 19.4 nM | 1.95 nM | 535 nM | 24 nM |
| CCc1nc2cccnc2n1[C@H]1CCCN(C[C@H]2COc3ccccc3O2)C1 [example 159, 3-((S)-1-(((S)-2,3-Dihydrobenzo[b][1,4]dioxin-2-yl)methyl)piperidin-3-yl)-2-ethyl-3H-imidazo[4,5-b]pyridine] | 0.01 nM | 0.001 nM | > 10000 nM | > 449 nM |
| CC(=O)NCc1ccc2c(c1)CN([C@H]1CCCN(C[C@H]3COc4ccccc4O3)C1)C2=O [example 71, N-((2-((S)-1-(((S)-2,3-Dihydrobenzo[b][1,4]dioxin-2-yl)methyl)piperidin-3-yl)-1-oxoisoindolin-5-yl)methyl)acetamide] | 0.12 nM | 0.012 nM | > 10000 nM | > 449 nM |
| CN(C)C(=O)CN1C(=O)N([C@H]2CCCN(C[C@H]3COc4ccccc4O3)C2)C(=O)C12CC2 [example 124, 2-(6-((S)-1-(((S)-2,3-Dihydrobenzo[b][1,4]dioxin-2-yl)methyl)-piperidin-3-yl)-5,7-dioxo-4,6-diazaspiro[2.4]heptan-4-yl)-N,N-dimethylacetamide] | 1.47 nM | 0.131 nM | > 10000 nM | > 449 nM |
| CC(C)N1C(=O)N([C@H]2CCCN(C[C@H]3COc4ccccc4O3)C2)C(=O)C1(C)C [example 116, 3-((S)-1-(((S)-2,3-Dihydrobenzo[b][1,4]dioxin-2-yl)methyl)-piperidin-3-yl)-1-isopropyl-5,5-dimethylimidazolidine-2,4-dione] | 1 nM | 0.1 nM | > 10000 nM | > 449 nM |
| O=C1c2ccc(Cl)cc2CN1[C@H]1CCCN(C[C@H]2COc3ccccc3O2)C1 [example 60, 5-Chloro-2-((S)-1-(((S)-2,3-dihydrobenzo[b][1,4]dioxin-2-yl)methyl)piperidin-3-yl)isoindolin-1-one] | < 0.1 nM | < 0.01 nM | > 10000 nM | > 449 nM |
| Cc1nc2cc(F)c(F)cc2n1[C@H]1CCCN(C[C@H]2COc3ccccc3O2)C1 [example 28, 1-((S)-1-(((S)-2,3-Dihydrobenzo[b][1,4]dioxin-2-yl)methyl)piperidin-3-yl)-5,6-difluoro-2-methyl-1H-benzo[d]imidazole] | 5.43 nM | 0.547 nM | > 10000 nM | > 449 nM |

Other lines, results leading:

| IC50 (human alpha2C receptors) | Kb (human alpha2C receptors) | IC50 (human alpha2A receptors) | Kb (human alpha2A receptors) | Compound |
| --- | --- | --- | --- | --- |
| 69.8 nM | 7.03 nM | 288 nM | 13 nM | CN(C)Cc1nc2ccc(Cl)cc2n1[C@H]1CCCN(C[C@H]2COc3ccccc3O2)C1 [example 152, 1-(6-Chloro-1-((S)-1-(((S)-2,3-dihydrobenzo[b][1,4]dioxin-2-yl)methyl)piperidin-3-yl)-1H-benzo[d]imidazol-2-yl)-N,N-dimethylmethanamine] |
| 18 nM | 1.81 nM | > 10000 nM | > 449 nM | O=C1c2cncnc2CN1[C@H]1CCCN(C[C@H]2COc3ccccc3O2)C1 [example 23, 6-((S)-1-(((S)-2,3-Dihydrobenzo[b][1,4]dioxin-2-yl)methyl)piperidin-3-yl)-6,7-dihydro-5H-pyrrolo[3,4-d]pyrimidin-5-one] |
| < 0.1 nM | < 0.01 nM | > 10000 nM | > 449 nM | O=C1C2=C(CCCC2)C(=O)N1[C@H]1CCCN(C[C@H]2COc3ccccc3O2)C1 [example 94, 2-((S)-1-(((S)-2,3-Dihydrobenzo[b][1,4]dioxin-2-yl)methyl)-piperidin-3-yl)-4,5,6,7-tetrahydro-1H-isoindole-1,3(2H)-dione hydrochloride] |
| 1770 nM | 178 nM | > 10000 nM | > 449 nM | O=C1c2ccncc2CN1[C@H]1CCCN(C[C@H]2COc3ccccc3O2)C1 [example 76, 2-((S)-1-(((S)-2,3-Dihydrobenzo[b][1,4]dioxin-2-yl)methyl)piperidin-3-yl)-2,3-dihydro-1H-pyrrolo[3,4-c]pyridin-1-one] |
| 56 nM | 5.64 nM | > 10000 nM | > 449 nM | COc1ccc2nc(C)n([C@H]3CCCN(C[C@H]4COc5ccccc5O4)C3)c2n1 [example 155, 3-((S)-1-(((S)-2,3-Dihydrobenzo[b][1,4]dioxin-2-yl)methyl)piperidin-3-yl)-5-methoxy-2-methyl-3H-imidazo[4,5-b]pyridine] |
| 5.4 nM | 0.544 nM | > 10000 nM | > 449 nM | O=C1c2scnc2CN1[C@H]1CCCN(C[C@H]2COc3ccccc3O2)C1 [example 79, 5-((S)-1-(((S)-2,3-Dihydrobenzo[b][1,4]dioxin-2-yl)methyl)piperidin-3-yl)-4H-pyrrolo[3,4-d]thiazol-6(5H)-one] |
| 9.26 nM | 0.93 nM | > 10000 nM | > 449 nM | CC1CCN([C@H]2CCCN(C[C@H]3COc4ccccc4O3)C2)C1=O (single isomer, unassigned; diastereomer 1) [example 98] |
| 4.95 nM | 0.5 nM | > 10000 nM | > 449 nM | CN1CCCN([C@H]2CCCN(C[C@H]3COc4ccccc4O3)C2)C1=O [example 54, 1-((S)-1-(((S)-2,3-Dihydrobenzo[b][1,4]dioxin-2-yl)methyl)piperidin-3-yl)-3-methyltetrahydropyrimidin-2(1H)-one] |
| 3.43 nM | 0.346 nM | > 10000 nM | > 449 nM | Cc1nc2cnccc2n1[C@H]1CCCN(C[C@H]2COc3ccccc3O2)C1 [example 158, 1-((S)-1-(((S)-2,3-Dihydrobenzo[b][1,4]dioxin-2-yl)methyl)piperidin-3-yl)-2-methyl-1H-imidazo[4,5-c]pyridine] |
| 0.15 nM | 0.016 nM | > 10000 nM | > 449 nM | Cc1nc2cncnc2n1[C@H]1CCCN(C[C@H]2COc3ccccc3O2)C1 [example 160, 9-((S)-1-(((S)-2,3-Dihydrobenzo[b][1,4]dioxin-2-yl)methyl)piperidin-3-yl)-8-methyl-9H-purine] |
| 0.796 nM | 0.08 nM | > 10000 nM | > 449 nM | CC(C)(C)N1C(=O)C(=O)N([C@H]2CCCN(C[C@H]3COc4ccccc4O3)C2)C1=O [example 134, 1-tert-Butyl-3-((S)-1-(((S)-2,3-dihydrobenzo[b][1,4]dioxin-2-yl)methyl)piperidin-3-yl)imidazolidine-2,4,5-trione] |
| < 0.01 nM | < 0.001 nM | 5210 nM | 234 nM | O=C1CC(c2ccccc2)CN1[C@H]1CCCN(C[C@H]2COc3ccccc3O2)C1 (stereo partly drawn) [example 32, 1-((S)-1-(((S)-2,3-Dihydrobenzo[b][1,4]dioxin-2-yl)methyl)piperidin-3-yl)-4-phenylpyrrolidin-2-one] |
| 0.113 nM | 0.012 nM | 9830 nM | 441 nM | CC(=O)N1CCC(N2C(=O)C(=O)N([C@H]3CCCN(C[C@H]4COc5ccccc5O4)C3)C2=O)CC1 [example 139, 1-(1-Acetylpiperidin-4-yl)-3-((S)-1-(((S)-2,3-dihydrobenzo[b][1,4]-dioxin-2-yl)methyl)piperidin-3-yl)imidazolidine-2,4,5-trione] |
